Laboratory results reported in ChEMBL document CHEMBL6103598, “One-Pot Synthesis of Novel Tetrasubstituted α-Aminophosphonates Derived from α-Methylphosphoserine and In Vivo Evaluation as Anti-Inflammatory Agents” (J Med Chem, 2025).
Active and inactive are the calls of the source. The calls are words filed in the database; no cut-off is given here.

Legend:
[1] = tested on: Mus musculus; experiment: Antiinflammatory activity against TPA-induced ear edema in female CD1 mouse model assessed as decrease in NLR value at 5.7 mg measured per ear administered topically incubated for 4 hrs by microscopic analysis relative to control; assay type: functional; design: scale not given: the % may be the effect or the level left
[2] = tested on: Mus musculus; experiment: Antiinflammatory activity against CFA-induced paw edema in female CD1 mouse model assessed as reduction in paw swelling at 10 mg/kg, po preincubated with compound for 30 mins followed by CFA stimulation and measured after 2 to 6 hrs; assay type: functional, organism-based; settings: time 2.5-6.5 hrs
[3] = Octanol/water partition coefficient, logP of compound by shake flask method; assay type: physicochemical
[4] = tested on: Mus musculus; experiment: Antiinflammatory activity against CFA-induced paw edema in female CD1 mouse model assessed as reduction in paw swelling at 10 mg/kg, po preincubated with compound for 30 mins followed by CFA stimulation and measured after 24 hrs; assay type: functional, organism-based; settings: time 24.5 hrs
[5] = tested on: Mus musculus; experiment: Antiinflammatory activity against TPA-induced ear edema in female CD1 mouse model assessed as reduction in ear edema by measuring maximum efficacy at 0.25 to 1.25 mg measured per ear incubated for 4 hrs administered topically relative to control; assay type: functional; settings: CD1, topical, dose 0.25-1.25 mg
[6] = tested on: Mus musculus; experiment: Antiinflammatory activity against CFA-induced paw edema in female CD1 mouse model assessed as reduction in paw swelling by measuring AUC at 10 mg/kg, po preincubated with compound for 30 mins followed by CFA stimulation and measured after 2 to 6 hrs relative to control; assay type: functional; design: scale not given: the % may be the effect or the level left; settings: time 2.5-6.5 hrs
[7] = tested on: Mus musculus; experiment: Potency index, ratio of Indomethacin ED50 to test compound ED50 for antiinflammatory activity against TPA-induced ear edema in female CD1 mouse model assessed as reduction in ear edema by measuring effective dose measured per ear incubated for 4 hrs administered topically; assay type: functional
[8] = tested on: Mus musculus; experiment: Antiinflammatory activity against TPA-induced ear edema in female CD1 mouse model assessed as reduction in ear edema by measuring effective dose measured per ear incubated for 4 hrs administered topically; assay type: functional
[9] = tested on: Mus musculus; experiment: Antiinflammatory activity against TPA-induced ear edema in female CD1 mouse model assessed as reduction in ear edema administered topically incubated for 4 hrs measured per ear; assay type: functional, organism-based
[10] = tested on: Mus musculus; experiment: Antiinflammatory activity against CFA-induced paw edema in female CD1 mouse model assessed as reduction in paw swelling at 10 mg/kg, po preincubated with CFA followed by compound addition and measured after 25 to 28 hrs relative to control; assay type: functional; design: scale not given: the % may be the effect or the level left; settings: time 25-28 hrs
[11] = tested on: Mus musculus; experiment: Antiinflammatory activity against TPA-induced ear edema in female CD1 mouse model assessed as decrease in NLR value at 3 mg measured per ear administered topically incubated for 4 hrs by microscopic analysis relative to control; assay type: functional; design: scale not given: the % may be the effect or the level left
[12] = tested on: Mus musculus; experiment: Antiinflammatory activity against TPA-induced ear edema in female CD1 mouse model assessed as decrease in NLR value at 1 mg measured per ear administered topically incubated for 4 hrs by microscopic analysis relative to control; assay type: functional; design: scale not given: the % may be the effect or the level left

Row | Compound | logP [3] | Activity [1] [%] | Activity [2] | Activity [4] | Emax [5] [%] | Activity [6] [%] | Ratio ED50 [7] | ED50 [8] [mg] | Activity [9] | Activity [10] [%] | Activity [11] [%] | Activity [12] [%]
1 | COc1ccc2cc([C@H](C)C(=O)OCC(C)(N[C@@H](C)c3ccccc3)P(=O)(OC)OC)ccc2c1 (stereo partly drawn) | 4.8 | 46.7 | Active | inactive | 93.9 | 47.8 | 2.1 | 0.26 | Dose-dependent-effect | 21.7 | – | –
2 | COP(=O)(OC)C(C)(COC(=O)c1ccccc1)N[C@@H](C)c1ccccc1 (stereo partly drawn) | 4.4 | – | Active | inactive | 91.8 | 47.8 | 1.2 | 0.46 | Dose-dependent-effect | 21.7 | 64.7 | –
3 | COc1ccc2cc([C@H](C)C(=O)O)ccc2c1 [NAPROXEN] | – | – | Active | inactive | 90.6 | 55.4 | – | 0.13 | Dose-dependent-effect | 39.8 | – | 57.1
4 | COP(=O)(OC)C(C)(COC(=O)c1ccccc1)NCc1ccccc1 (stereo not drawn) | 4.2 | – | Active | inactive | 83.3 | 47.8 | 1.1 | 0.49 | Dose-dependent-effect | 21.7 | – | –

Now from value to molecule, other results behind:

Row | logP [3] | Compound | Activity [1] [%] | Activity [2] | Activity [4] | Emax [5] [%] | Activity [6] [%] | Ratio ED50 [7] | ED50 [8] [mg] | Activity [9] | Activity [10] [%] | Activity [11] [%] | Activity [12] [%]
5 | 3.3 | CCC(=O)OCC(C)(NCc1ccccc1)P(=O)(OC)OC (stereo not drawn) | 48 | Active | inactive | 90.1 | 47.8 | 1.1 | 0.48 | Dose-dependent-effect | 21.7 | – | –
6 | 4.5 | COc1ccc2cc([C@H](C)C(=O)OCC(C)(NCc3ccccc3)P(=O)(OC)OC)ccc2c1 (stereo partly drawn) | – | Active | inactive | 84.8 | 47.8 | 1 | 0.53 | Dose-dependent-effect | 21.7 | – | –
7 | 3.5 | CCC(=O)OCC(C)(N[C@@H](C)c1ccccc1)P(=O)(OC)OC (stereo partly drawn) | – | Active | inactive | 85.9 | 47.8 | 0.8 | 0.66 | Dose-dependent-effect | 21.7 | – | –
8 | 3.99 | COc1ccc2c(c1)c(CC(=O)O)c(C)n2C(=O)c1ccc(Cl)cc1 [INDOMETHACIN] | – | Active | inactive | 89.3 | 58.7 | – | 0.54 | – | 36.5 | – | 59.3
